{
  "source": "patent US20230176063A1",
  "about": "“PHOTOREACTIVE AND CLEAVABLE PROBES FOR TAGGING BIOMOLECULES” (Academia Sinica, priority 2020, published 2023)",
  "tested_on": "nucleolin",
  "test": "photoselective tagging of nucleolin using azo probe",
  "type": "cell-based",
  "settings": "fixed U2OS cells",
  "protocol": "Nucleolin is a protein found in the nucleolus of eukaryotic cells and involved in the synthesis of ribosomes. Azo-probe 1 was conjugated to a secondary antibody by using BCN-NHS (CAS# 1516551-46-4) as additional linker between Azo-probe 1 and secondary antibody. A sample of U2OS cells was grown on a glass-bottom chamber slide and fixed with 2.4% PFA. The antibody conjugated with Azo-probe 1 was applied to the sample stained with anti-nucleolin antibody. The sample was exposed to 780 nm two-photon irradiation (200mW, 200 µs/pixel) to photocrosslink the light activated warhead to the antibody and subsequently incubated with 1 M sodium dithionite at room temperature for over 16 h to remove non-crosslinked probes. Neutravidin conjugated to Alexa Fluor 647 dye was added and the sample assayed for the Alexa Fluor 647. Alexa Fluor 647 is a bright, far-red-fluorescent dye with excitation ideally suited for the 594 nm or 633 nm laser lines. Results are shown in the top panel of FIG. 12B. A close-up view is shown in the top right side of FIG. 12B. […] A side view is shown in the bottom right of FIG. 12B.",
  "data": [
    {"smiles": "O=C(CCCC[C@@H]1SC[C@@H]2NC(=O)N[C@@H]21)N[C@@H](Cc1cn(CCOCCOCCOCCNC(=O)c2ccc(C(=O)c3ccccc3)cc2)nn1)C(=O)NCCc1ccc(O)c(/N=N/c2ccc(C(=O)ON3C(=O)CCC3=O)cc2)c1", "note": "[Azo-probe 1]", "values": [
      {"measurement": "Alexa Fluor 647 (Neutravidin) staining of tagged nucleolin", "setting": "probe conjugated to secondary antibody via BCN-NHS, 780 nm two-photon irradiation (200mW, 200 µs/pixel), 1 M sodium dithionite over 16 h", "value": "characteristic nucleoli shape is observed"},
      {"measurement": "Alexa Fluor 647 (Neutravidin) staining of tagged nucleolin, control region", "setting": "treated the same but not exposed to photoactivating light", "value": "No significant staining was observed"}
    ]}
  ]
}
